Results from patent US12673975B2, “Cyclic peptide, cell scaffold material, cell separating material, and medium” (FUJIFILM Corporation, priority 2019, dated 2026).
Read-outs that look alike come from different tables or passages of the source. Starred links: 1 amine or outer side, 2 acyl side, 3 side chain; linkers in the order of their positions; H or OH if unused. Positions of bridges follow the written chain, without caps; N, C: chain ends. Non-standard residues stand in square brackets, D forms with d. Residues, ends and D or L forms follow the SMILES beside them. hTyr = N[C@@H](CCc1ccc(O)cc1)C(=O)O; hCys = N[C@@H](CCS)C(=O)O; hSer = N[C@@H](CCO)C(=O)O; Orn = NCCC[C@H](N)C(=O)O; Dab = NCC[C@H](N)C(=O)O; X1 = O=C(C[*:2])[*:1]; X2 = O=C(C[*:1])[*:2]

Key:
human integrin αvβ5 = human integrin αvβ5 (Homo sapiens, UniProt P06756+P18084); assay: Evaluation of integrin binding property (surface plasmon resonance, Biacore 3000, immobilized cyclic peptide)
Chain of human integrin αvβ5 (P06756 31-1048): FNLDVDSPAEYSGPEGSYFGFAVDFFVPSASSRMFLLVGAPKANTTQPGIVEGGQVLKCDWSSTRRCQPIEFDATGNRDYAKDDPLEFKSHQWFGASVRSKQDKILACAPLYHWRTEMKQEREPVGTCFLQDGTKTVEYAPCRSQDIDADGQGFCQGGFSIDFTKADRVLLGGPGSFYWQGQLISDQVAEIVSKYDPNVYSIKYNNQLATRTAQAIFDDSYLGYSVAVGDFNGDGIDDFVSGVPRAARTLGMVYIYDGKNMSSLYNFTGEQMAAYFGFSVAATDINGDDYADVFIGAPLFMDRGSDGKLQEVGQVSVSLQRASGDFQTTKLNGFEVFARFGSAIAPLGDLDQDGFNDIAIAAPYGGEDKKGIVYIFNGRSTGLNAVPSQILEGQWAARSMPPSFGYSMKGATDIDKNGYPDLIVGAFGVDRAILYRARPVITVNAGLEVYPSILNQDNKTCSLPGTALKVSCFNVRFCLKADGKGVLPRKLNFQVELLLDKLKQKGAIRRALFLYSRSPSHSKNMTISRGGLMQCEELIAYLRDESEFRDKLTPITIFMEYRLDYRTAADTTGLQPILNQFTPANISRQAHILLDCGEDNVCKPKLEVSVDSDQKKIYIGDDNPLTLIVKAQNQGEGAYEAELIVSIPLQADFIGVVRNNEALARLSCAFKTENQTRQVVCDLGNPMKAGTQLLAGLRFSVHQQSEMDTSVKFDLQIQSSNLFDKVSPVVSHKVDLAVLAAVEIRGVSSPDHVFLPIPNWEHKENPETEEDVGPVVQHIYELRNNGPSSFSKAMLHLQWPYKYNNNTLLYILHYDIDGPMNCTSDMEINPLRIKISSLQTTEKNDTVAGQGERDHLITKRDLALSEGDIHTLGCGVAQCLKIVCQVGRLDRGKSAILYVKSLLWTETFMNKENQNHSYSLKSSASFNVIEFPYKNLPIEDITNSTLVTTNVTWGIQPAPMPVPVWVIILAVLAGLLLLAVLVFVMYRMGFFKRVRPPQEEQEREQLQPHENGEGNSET
Chain of human integrin αvβ5 (P18084 24-799): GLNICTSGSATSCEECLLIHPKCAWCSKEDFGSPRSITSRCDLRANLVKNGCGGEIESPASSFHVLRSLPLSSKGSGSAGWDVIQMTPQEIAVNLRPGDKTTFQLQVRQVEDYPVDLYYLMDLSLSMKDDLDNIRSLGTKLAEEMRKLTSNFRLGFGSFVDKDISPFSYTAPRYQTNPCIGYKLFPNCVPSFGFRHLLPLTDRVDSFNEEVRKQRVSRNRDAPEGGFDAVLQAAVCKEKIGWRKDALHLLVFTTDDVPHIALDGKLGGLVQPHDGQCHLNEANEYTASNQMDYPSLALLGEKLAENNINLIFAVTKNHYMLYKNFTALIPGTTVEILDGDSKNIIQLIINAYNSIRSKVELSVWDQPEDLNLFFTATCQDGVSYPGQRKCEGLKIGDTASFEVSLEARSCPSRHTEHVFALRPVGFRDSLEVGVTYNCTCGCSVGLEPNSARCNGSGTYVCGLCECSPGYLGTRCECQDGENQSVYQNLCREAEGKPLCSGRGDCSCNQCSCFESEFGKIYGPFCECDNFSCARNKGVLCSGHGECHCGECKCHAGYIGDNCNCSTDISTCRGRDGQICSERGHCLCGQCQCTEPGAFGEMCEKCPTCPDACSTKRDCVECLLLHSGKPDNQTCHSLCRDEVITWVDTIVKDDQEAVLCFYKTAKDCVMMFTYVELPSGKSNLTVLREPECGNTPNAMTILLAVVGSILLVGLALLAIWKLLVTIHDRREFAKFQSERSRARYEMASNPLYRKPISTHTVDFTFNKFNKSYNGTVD
Method: A commercially available CMS (a carboxymethyl dextran introduction type, manufactured by GE Healthcare) sensor chip was set in Biacore 3000, which is a surface plasmon resonance apparatus manufactured by GE Healthcare, the sensor was stabilized at a flow rate of 10 μL/min of a HEPES (4-(2-hydroxyethyl)-1-piperazineethanesulfonic acid) buffer solution (20 mM HEPES-HCl, 150 mM NaCl, pH 7.4) for surface plasmon resonance (SPR), and 70 μL of a mixed aqueous solution of 0.2 M 1-(3-dimethylaminopropyl)-3-ethylcarbodiimide (EDC) and 0.04 M N-hydroxysuccinimide (NHS) was added thereto. Here, the concentration unit M represents mol/L, and the same applies hereinafter. Then, 20 μL of the sample solution of each of the above cyclic peptides diluted to 0.2 g/L with the HEPES buffer solution was supplied to the sensor chip, blocking treatment was subsequently carried out with an ethanolamine solution, and washing was carried out with a sodium hydroxide aqueous solution, whereby immobilization was carried out. However, only for the cyclic peptides 125, 126, and 127, in which the number of lysine residues having an amino group as the immobilizing functional group was zero, the amount of the sample solution to be supplied to the sensor chip was set to 500 μL instead of 20 μL. Further, 70 μL of the mixed aqueous solution of 0.2 M EDC and 0.04 M NHS was added to another flow channel of the same sensor chip without immobilizing the sample, and then blocking treatment and washing treatment were carried out. Hereinafter, the obtained immobilization-treated sensor chip is referred to as an “immobilization-treated sensor chip A”.
After adding human integrin αvβ5 for 10 minutes at 25° C., which was diluted to 30 nM using a HEPES buffer solution to which magnesium chloride was added to 5 mM, in each flow channel of the immobilization-treated sensor chip A prepared in (1) above, the same HEPES buffer solution (containing 5 mM magnesium chloride) was allowed to flow as a running buffer for 30 minutes, and measurement was carried out with Biacore 3000. Then, a regeneration treatment of removing human integrin αvβ5 was carried out by allowing a 0.5 M EDTA aqueous solution to flow through each flow channel for 10 minutes. Further, the above-described measurement process consisting of adding integrin for 10 minutes, allowing a running buffer to flow for 30 minutes, carrying out measurement with Biacore 3000, and carrying out regeneration treatment with 0.5 M EDTA aqueous solution was carried out in the same manner for 100 nM human integrin αvβ5, 300 nM human integrin αvβ5, and 1,000 nM human integrin αvβ5. Dissociation constant between the cyclic peptide and human integrin αvβ5 was calculated from the difference between the value measured by Biacore 3000 in the flow channel immobilized with the cyclic peptide and the value measured by Biacore 3000 in the flow channel unimmobilized with the cyclic peptide, in a case where each concentration of human integrin αvβ5 was allowed to flow, and the integrin binding property was evaluated according to the following evaluation standards. It is preferable that the evaluation result satisfies the evaluation standard A, B, or C.

[1] = Evaluation of molecule stability (alkali treatment, residual rate by LC/MS); assay type: physicochemical; conditions: for Stability (molecule stability, residual rate of the cyclic peptide rank): alkali treatment, residual rate by LC/MS; for Performance evaluation: Stability (residual rate of cyclic peptide after alkali treatment): 500 μM peptide aqueous solution plus equivalent of 1 M sodium hydroxide, 15° C., 3 hours, LC/MS peak area
Method: The molecule stability of the cyclic peptide was evaluated by analyzing the alkali-treated cyclic peptide aqueous solution by liquid chromatography mass spectroscopy (LC/MS).
The alkali treatment was carried out by the following method. A 500 μM cyclic peptide aqueous solution was prepared, an equivalent of 1 M sodium hydroxide aqueous solution was added to this aqueous solution, and the resultant mixture was incubated at 15° C. for 3 hours to obtain an alkali-treated cyclic peptide aqueous solution. The cyclic peptide residual rate was calculated by setting the total area of all peaks of the cyclic peptide before alkali treatment in LC/MS to 100% and determining the proportion of the total area of all peaks in LC/MS of the alkali-treated cyclic peptide aqueous solution, and the molecule stability was evaluated according to the following evaluation standards. It is preferable that the evaluation result satisfies the evaluation standard A, B, or C.
The conditions of the LC/MS used for the evaluation of molecule stability were set as follows. • LC apparatus: Prominence series (pump, column oven, autosampler, detector) (manufactured by Shimadzu Corporation) • MS detector: LC/MS2010EV (manufactured by Shimadzu Corporation) • Column: Cadenza CD-C18, inner diameter 2.0 mm×length 250 mm, particle size: 3 μm (manufactured by Imtakt Corporation) • Eluent A: a solution (pH 3) containing 10 mM ammonium formate as a solute, where the solvent is 100% water. • Eluent B: a solution (pH 3) containing 10 mM ammonium formate as a solute, where the solvent is acetonitrile/water=90/10. • Flow rate: 0.2 mL/min • Injection volume: 4 μL • Gradient: 0% to 30%: Eluent B (0 to 30 minutes), 100%: Eluent B (30 to 40 minutes), 0%: Eluent B (40 to 60 minutes) • Column temperature: 45° C. • Ionization method: electrospray ionization (ESI) positive, ESI negative

[2] = surface plasmon resonance, immobilized cyclic peptide, human integrin αvβ5, read-out: Binding activity (integrin binding property, dissociation constant rank)

Structure (SMILES) | Kd (human integrin αvβ5; [2]) | Kd (human integrin αvβ5; SPR, 25° C., HEPES buffer with 5 mM magnesium chloride, integrin 30-1,000 nM, read-out: Performance evaluation: Binding activity (dissociation constant between the cyclic peptide and human integrin αvβ5)) | Stability (molecule stability, residual rate of the cyclic peptide rank) [1] | Performance evaluation: Stability (residual rate of cyclic peptide after alkali treatment) [1]
CC(C)[C@@H]1NC(=O)[C@@H](NC(=O)[C@H](C)NC(=O)[C@H](CCCCN)NC(=O)[C@H](CCCCN)NC(=O)[C@@H](N)CCCCN)CCSCC(=O)NCC[C@@H](C(=O)N[C@@H](C)C(=O)O)NC(=O)[C@H](CCCNC(=N)N)NC(=O)[C@H](Cc2ccccc2)NC(=O)[C@H]([C@@H](C)O)NC(=O)[C@H](CC(=O)O)NC(=O)CNC(=O)[C@H](CCCNC(=N)N)NC(=O)[C@H]([C@@H](C)O)NC1=O [Cyclic peptide 89, KKKA-(Hcy)-VTRGDTFR(Dab(acetyl))A] (H-KKKA[hCys]VTRGDTFR[Dab]A-OH; linker 5-14 via X2) |  | < 50 nM |  | A (The residual rate of the cyclic peptide is 70% or more.)
CC[C@H](C)[C@@H]1NC(=O)[C@@H](NC(=O)CNC(=O)[C@H](CCCCN)NC(=O)[C@H](CCCCN)NC(=O)[C@@H](N)CCCCN)CCSCC(=O)NCC[C@@H](C(=O)N[C@@H](C)C(=O)O)NC(=O)[C@H](CCCNC(=N)N)NC(=O)[C@H](Cc2ccccc2)NC(=O)[C@H](CCO)NC(=O)[C@H](CC(=O)O)NC(=O)CNC(=O)[C@H](CCCNC(=N)N)NC(=O)[C@@H]2CCCN2C1=O [Cyclic peptide 73, KKKG-(Hcy)-IPRGD-(HmS)-FR(Dab(acetyl))A] (H-KKKG[hCys]IPRGD[hSer]FR[Dab]A-OH; linker 5-14 via X2) |  |  |  | A (The residual rate of the cyclic peptide is 70% or more.)
C[C@H](NC(=O)[C@@H]1CCNC(=O)CSCC[C@H](NC(=O)CNC(=O)[C@H](CCCCN)NC(=O)[C@H](CCCCN)NC(=O)[C@@H](N)CCCCN)C(=O)N[C@@H](CCc2ccc(O)cc2)C(=O)N2CCC[C@H]2C(=O)N[C@@H](CCCNC(=N)N)C(=O)NCC(=O)N[C@@H](CC(=O)O)C(=O)N[C@@H]([C@@H](C)O)C(=O)N[C@@H](Cc2ccccc2)C(=O)N[C@@H](CCCNC(=N)N)C(=O)N1)C(=O)O [Cyclic peptide 68, KKKG-(Hcy)-(HmY)-PRGDTFR(Dab(acetyl))A] (H-KKKG[hCys][hTyr]PRGDTFR[Dab]A-OH; linker 5-14 via X2) |  |  |  | A (The residual rate of the cyclic peptide is 70% or more.)

Now from value to molecule, other results behind:

Kd (human integrin αvβ5; [2]) | Kd (human integrin αvβ5; SPR, 25° C., HEPES buffer with 5 mM magnesium chloride, integrin 30-1,000 nM, read-out: Performance evaluation: Binding activity (dissociation constant between the cyclic peptide and human integrin αvβ5)) | Structure (SMILES) | Stability (molecule stability, residual rate of the cyclic peptide rank) [1] | Performance evaluation: Stability (residual rate of cyclic peptide after alkali treatment) [1]
< 50 nM |  | CC[C@H](C)[C@@H]1NC(=O)[C@@H](NC(=O)[C@H](C)N)CCSCC(=O)NCC[C@@H](C(=O)N[C@@H](C)C(=O)O)NC(=O)[C@H](C)NC(=O)[C@H](Cc2ccccc2)NC(=O)[C@H](CO)NC(=O)[C@H](CC(=O)O)NC(=O)CNC(=O)[C@H](CCCNC(=N)N)NC(=O)[C@@H]2CCCN2C1=O [Cyclic peptide 126, A-(Hcy)-IPRGDSFA(Dab(acetyl))A] (H-A[hCys]IPRGDSFA[Dab]A-OH; linker 2-11 via X2) | A (The residual rate of the cyclic peptide is 70% or more.) | 
< 50 nM |  | C[C@@H]1NC(=O)[C@H](Cc2ccccc2)NC(=O)[C@H](CO)NC(=O)[C@H](CC(=O)O)NC(=O)CNC(=O)[C@H](CCCNC(=N)N)NC(=O)[C@H]([C@@H](C)O)NC(=O)[C@H]([C@@H](C)O)NC(=O)[C@@H](NC(=O)[C@H](CCCCN)NC(=O)[C@H](CCCCN)NC(=O)[C@@H](N)CCCCN)CCSCC(=O)NCC[C@@H](C(=O)O)NC1=O [Cyclic peptide 157, KKK-(Hcy)-TTRGDSFA(Dab(acetyl))] (H-KKK[hCys]TTRGDSFA[Dab]-OH; linker 4-13 via X2) | A (The residual rate of the cyclic peptide is 70% or more.) | 
< 50 nM |  | CC[C@H](C)[C@@H]1NC(=O)[C@@H](NC(=O)CNC(=O)[C@H](CCCCN)NC(=O)[C@H](CCCCN)NC(=O)[C@@H](N)CCCCN)CCCNC(=O)CSC[C@@H](C(=O)N[C@@H](C)C(=O)O)NC(=O)[C@H](CCCNC(=N)N)NC(=O)[C@H](Cc2ccccc2)NC(=O)[C@H]([C@@H](C)O)NC(=O)[C@H](CC(=O)O)NC(=O)CNC(=O)[C@H](CCCNC(=N)N)NC(=O)[C@@H]2CCCN2C1=O [Cyclic peptide 139, KKKG(Orn(acetyl))IPRGDTFR(C)A] (H-KKKG[Orn]IPRGDTFRCA-OH; linker 5-14 via X1) | C (The residual rate of the cyclic peptide is 30% or more and less than 50%.) | 
